Source: US7592345B2, “Piperazine and [1,4]diazepan derivatives as NK antagonists” (Hoffmann-La Roche Inc., priority 2007, dated 2009)

biological target: T1, recombinant human NK3 receptor (Homo sapiens, UniProt P29371); test: [3H]SR142801 competition binding assay; details: [3H]SR142801, membranes from HEK293 cells transiently expressing recombinant human NK3 receptor; read-out: hNK3 Ki
T1 construct: expressed in transfected cells; host or cells: HEK293 cells (transient expression), membranes
T1 sequence (P29371 1-465): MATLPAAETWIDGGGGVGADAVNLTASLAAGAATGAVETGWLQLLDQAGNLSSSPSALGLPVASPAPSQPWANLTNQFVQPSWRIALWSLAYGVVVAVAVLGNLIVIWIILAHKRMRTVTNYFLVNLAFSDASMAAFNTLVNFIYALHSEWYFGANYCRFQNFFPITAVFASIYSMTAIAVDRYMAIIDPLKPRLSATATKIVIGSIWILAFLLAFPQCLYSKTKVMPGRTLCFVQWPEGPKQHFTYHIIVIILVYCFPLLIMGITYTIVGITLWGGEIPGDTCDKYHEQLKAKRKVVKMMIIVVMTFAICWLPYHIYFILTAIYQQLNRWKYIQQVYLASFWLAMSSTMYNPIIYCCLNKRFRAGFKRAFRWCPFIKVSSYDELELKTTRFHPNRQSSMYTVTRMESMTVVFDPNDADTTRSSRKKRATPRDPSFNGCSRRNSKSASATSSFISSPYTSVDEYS
Outline: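 Membranes from HEK293 cells transiently expressing human NK3 were incubated 75 min at RT with [3H]SR142801 at its KD and inhibitor (0.0003-10 μM) in Tris-HCl pH 7.4/MnCl2/phosphoramidon/BSA. Nonspecific binding used 10 μM SB222200. Ki from Hill-fitted IC50 via Cheng-Prusoff, duplicate determinations.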

**Q.** With `Cc1ccc(CN(C)C(=O)C(C)(CCN2CCN(S(C)(=O)=O)[C@@H](C)C2)c2ccc(Cl)c(Cl)c2)cc1` (stereo partly drawn) [Example 67, 2-(3,4-Dichloro-phenyl)-4-((S)-4-methanesulfonyl-3-methyl-piperazin-1-yl)-2,N-dimethyl-N-(4-methyl-benzyl)-butyramide] as the compound, how does the Ki read?
**A.** Its Ki is 99.2 nM.

**Q.** For `C[C@H]1CN(CCC(C)(C(=O)NCc2ccc(N(C)C)cc2)c2ccc(Cl)c(Cl)c2)CCN1S(C)(=O)=O` (stereo partly drawn) [Example 68, 2-(3,4-Dichloro-phenyl)-N-(4-dimethylamino-benzyl)-4-((S)-4-methanesulfonyl-3-methyl-piperazin-1-yl)-2-methyl-butyramide], which Ki is on record?
**A.** The Ki was 734 nM.

**Q.** For `C[C@H]1CN(CCC(C)(C(=O)N(C)Cc2ccc(Cl)c(C(F)(F)F)c2)c2ccc(Cl)c(Cl)c2)CCN1S(C)(=O)=O` (stereo partly drawn) [Example 69, N-(4-Chloro-3-trifluoromethyl-benzyl)-2-(3,4-dichloro-phenyl)-4-((S)-4-methanesulfonyl-3-methyl-piperazin-1-yl)-2,N-dimethyl-butyramide], which Ki is on record?
**A.** Its Ki is 11.4 nM.

**Q.** `C[C@H]1CN(CCC(C)(C(=O)N(C)Cc2ccc(C(F)(F)F)c(F)c2)c2ccc(Cl)c(Cl)c2)CCN1S(C)(=O)=O` (stereo partly drawn) [Example 70, 2-(3,4-Dichloro-phenyl)-N-(3-fluoro-4-trifluoromethyl-benzyl)-4-((S)-4-methanesulfonyl-3-methyl-piperazin-1-yl)-2,N-dimethyl-butyramide] was tested. Which Ki did it give?
**A.** Its Ki is 19.2 nM.

**Q.** How did the Ki turn out when `C[C@H]1CN(CCC(C)(C(=O)N(C)Cc2ccc(Cl)c(Cl)c2)c2ccc(Cl)c(Cl)c2)CCN1S(C)(=O)=O` (stereo partly drawn) [Example 71, N-(3,4-Dichloro-benzyl)-2-(3,4-dichloro-phenyl)-4-((S)-4-methanesulfonyl-3-methyl-piperazin-1-yl)-2,N-dimethyl-butyramide] was run?
**A.** The Ki was 12.5 nM.

**Q.** For `C[C@H]1CN(CCC(C)(C(=O)NCc2ccc(Cl)c(Cl)c2)c2ccc(Cl)c(Cl)c2)CCN1S(C)(=O)=O` (stereo partly drawn) [Example 72, N-(3,4-Dichloro-benzyl)-2-(3,4-dichloro-phenyl)-4-((S)-4-methanesulfonyl-3-methyl-piperazin-1-yl)-2-methyl-butyramide], which Ki is on record?
**A.** The Ki was 42.9 nM.

**Q.** With `C[C@H]1CN(CCC(C)(C(=O)NCc2cccc(OC(F)F)c2)c2ccc(Cl)c(Cl)c2)CCN1S(C)(=O)=O` (stereo partly drawn) [Example 73, 2-(3,4-Dichloro-phenyl)-N-(3-difluoromethoxy-benzyl)-4-((S)-4-methanesulfonyl-3-methyl-piperazin-1-yl)-2-methyl-butyramide] as the compound, how does the Ki read?
**A.** The Ki was 300 nM.

**Q.** For `C[C@H]1CN(CCC(C)(C(=O)NCc2cc(F)ccc2C(F)(F)F)c2ccc(Cl)c(Cl)c2)CCN1S(C)(=O)=O` (stereo partly drawn) [Example 74, 2-(3,4-Dichloro-phenyl)-N-(5-fluoro-2-trifluoromethyl-benzyl)-4-((S)-4-methanesulfonyl-3-methyl-piperazin-1-yl)-2-methyl-butyramide], which Ki is on record?
**A.** Its Ki is 496 nM.

**Q.** How did the Ki turn out when `C[C@H]1CN(CCC(C)(C(=O)NCc2ccc(C(F)(F)F)cc2)c2ccc(Cl)c(Cl)c2)CCN1S(C)(=O)=O` (stereo partly drawn) [Example 75, 2-(3,4-Dichloro-phenyl)-4-((S)-4-methanesulfonyl-3-methyl-piperazin-1-yl)-2-methyl-N-(4-trifluoromethyl-benzyl)-butyramide] was run?
**A.** The Ki was 68.1 nM.

**Q.** With `C[C@H]1CN(CCC(C)(C(=O)NCc2cc(C(F)(F)F)ccc2F)c2ccc(Cl)c(Cl)c2)CCN1S(C)(=O)=O` (stereo partly drawn) [Example 76, 2-(3,4-Dichloro-phenyl)-N-(2-fluoro-5-trifluoromethyl-benzyl)-4-((S)-4-methanesulfonyl-3-methyl-piperazin-1-yl)-2-methyl-butyramide] as the compound, how does the Ki read?
**A.** The Ki was 311 nM.

**Q.** With `CC(NC(=O)C(C)(CCN1CCN(S(C)(=O)=O)[C@@H](C)C1)c1ccc(Cl)c(Cl)c1)c1ccc(Cl)cc1` (stereo partly drawn) [Example 77, N-[1-(4-Chloro-phenyl)-ethyl]-2-(3,4-dichloro-phenyl)-4-((S)-4-methanesulfonyl-3-methyl-piperazin-1-yl)-2-methyl-butyramide] as the compound, how does the Ki read?
**A.** Its Ki is 67.4 nM.

**Q.** For `COc1cccc(CN(C)C(=O)C(C)(CCN2CCN(S(C)(=O)=O)[C@@H](C)C2)c2ccc(Cl)c(Cl)c2)c1` (stereo partly drawn) [Example 78, 2-(3,4-Dichloro-phenyl)-4-((S)-4-methanesulfonyl-3-methyl-piperazin-1-yl)-N-(3-methoxy-benzyl)-2,N-dimethyl-butyramide], which Ki is on record?
**A.** The Ki was 611 nM.

**Q.** For `C[C@H]1CN(CCC(C)(C(=O)N(C)Cc2ccccc2Cl)c2ccc(Cl)c(Cl)c2)CCN1S(C)(=O)=O` (stereo partly drawn) [Example 79, N-(2-Chloro-benzyl)-2-(3,4-dichloro-phenyl)-4-((S)-4-methanesulfonyl-3-methyl-piperazin-1-yl)-2,N-dimethyl-butyramide], which Ki is on record?
**A.** The Ki was 168 nM.

**Q.** With `CC(NC(=O)C(C)(CCN1CCN(S(C)(=O)=O)[C@@H](C)C1)c1ccc(Cl)c(Cl)c1)c1ccc(Cl)c(Cl)c1` (stereo partly drawn) [Example 80, 2-(3,4-Dichloro-phenyl)-N-[1-(3,4-dichloro-phenyl)-ethyl]-4-((S)-4-methanesulfonyl-3-methyl-piperazin-1-yl)-2-methyl-butyramide] as the compound, how does the Ki read?
**A.** Its Ki is 16.2 nM.

**Q.** Which Ki does the source give for `C[C@H]1CN(CCC(C)(C(=O)NCc2cccc(OC(F)(F)F)c2)c2ccc(Cl)c(Cl)c2)CCN1S(C)(=O)=O` (stereo partly drawn) [Example 81, 2-(3,4-Dichloro-phenyl)-4-((S)-4-methanesulfonyl-3-methyl-piperazin-1-yl)-2-methyl-N-(3-trifluoromethoxy-benzyl)-butyramide] here?
**A.** The Ki was 126 nM.

**Q.** `C[C@H]1CN(CCC(C)(C(=O)NCc2ccc(Cl)c(F)c2)c2ccc(Cl)c(Cl)c2)CCN1S(C)(=O)=O` (stereo partly drawn) [Example 82, N-(4-Chloro-3-fluoro-benzyl)-2-(3,4-dichloro-phenyl)-4-((S)-4-methanesulfonyl-3-methyl-piperazin-1-yl)-2-methyl-butyramide] was tested. Which Ki did it give?
**A.** The Ki was 94.2 nM.

**Q.** Which Ki does the source give for `C[C@H]1CN(CCC(C)(C(=O)NCc2ccc(OC(F)(F)F)cc2)c2ccc(Cl)c(Cl)c2)CCN1S(C)(=O)=O` (stereo partly drawn) [Example 83, 2-(3,4-Dichloro-phenyl)-4-((S)-4-methanesulfonyl-3-methyl-piperazin-1-yl)-2-methyl-N-(4-trifluoromethoxy-benzyl)-butyramide] here?
**A.** Its Ki is 57.1 nM.

**Q.** Which Ki does the source give for `C[C@H]1CN(CCC(C)(C(=O)NCc2ccc(Cl)c(C(F)(F)F)c2)c2ccc(Cl)c(Cl)c2)CCN1S(C)(=O)=O` (stereo partly drawn) [Example 84, N-(4-Chloro-3-trifluoromethyl-benzyl)-2-(3,4-dichloro-phenyl)-4-((S)-4-methanesulfonyl-3-methyl-piperazin-1-yl)-2-methyl-butyramide] here?
**A.** The Ki was 45.2 nM.

**Q.** For `C[C@H]1CN(CCC(C)(C(=O)N(C)Cc2ccc(C(F)(F)F)cc2)c2ccc(Cl)c(Cl)c2)CCN1S(C)(=O)=O` (stereo partly drawn) [Example 85, 2-(3,4-Dichloro-phenyl)-4-((S)-4-methanesulfonyl-3-methyl-piperazin-1-yl)-2,N-dimethyl-N-(4-trifluoromethyl-benzyl)-butyramide], which Ki is on record?
**A.** Its Ki is 27.7 nM.

**Q.** With `C[C@H]1CN(CCC(C)(C(=O)N(C)Cc2ccc(Cl)cc2)c2ccc(Cl)c(Cl)c2)CCN1S(C)(=O)=O` (stereo partly drawn) [Example 86, N-(4-Chloro-benzyl)-2-(3,4-dichloro-phenyl)-4-((S)-4-methanesulfonyl-3-methyl-piperazin-1-yl)-2,N-dimethyl-butyramide] as the compound, how does the Ki read?
**A.** The Ki was 66.3 nM.

**Q.** `C[C@H]1CN(CCC(C)(C(=O)N(C)Cc2cccc(C(F)(F)F)c2)c2ccc(Cl)c(Cl)c2)CCN1S(C)(=O)=O` (stereo partly drawn) [Example 87, 2-(3,4-Dichloro-phenyl)-4-((S)-4-methanesulfonyl-3-methyl-piperazin-1-yl)-2,N-dimethyl-N-(3-trifluoromethyl-benzyl)-butyramide] was tested. Which Ki did it give?
**A.** Its Ki is 52 nM.

**Q.** With `C[C@H]1CN(CCC(C)(C(=O)N(C)Cc2cccc(Cl)c2)c2ccc(Cl)c(Cl)c2)CCN1S(C)(=O)=O` (stereo partly drawn) [Example 88, N-(3-Chloro-benzyl)-2-(3,4-dichloro-phenyl)-4-((S)-4-methanesulfonyl-3-methyl-piperazin-1-yl)-2,N-dimethyl-butyramide] as the compound, how does the Ki read?
**A.** Its Ki is 107 nM.

**Q.** How did the Ki turn out when `C[C@H]1CN(CCC(C)(C(=O)N(C)Cc2cccc(F)c2)c2ccc(Cl)c(Cl)c2)CCN1S(C)(=O)=O` (stereo partly drawn) [Example 89, 2-(3,4-Dichloro-phenyl)-N-(3-fluoro-benzyl)-4-((S)-4-methanesulfonyl-3-methyl-piperazin-1-yl)-2,N-dimethyl-butyramide] was run?
**A.** The Ki was 266 nM.

**Q.** `C[C@H]1CN(CCC(C)(C(=O)N(C)Cc2ccc(C(F)(F)F)nc2)c2ccc(Cl)c(Cl)c2)CCN1S(C)(=O)=O` (stereo partly drawn) [Example 90, 2-(3,4-Dichloro-phenyl)-4-((S)-4-methanesulfonyl-3-methyl-piperazin-1-yl)-2,N-dimethyl-N-(6-trifluoromethyl-pyridin-3-ylmethyl)-butyramide] was tested. Which Ki did it give?
**A.** Its Ki is 525 nM.

**Q.** With `C[C@H]1CN(CCC(C)(C(=O)NCc2ccc(C(F)(F)F)nc2)c2ccc(Cl)c(Cl)c2)CCN1S(C)(=O)=O` (stereo partly drawn) [Example 91, 2-(3,4-Dichloro-phenyl)-4-((S)-4-methanesulfonyl-3-methyl-piperazin-1-yl)-2-methyl-N-(6-trifluoromethyl-pyridin-3-ylmethyl)-butyramide] as the compound, how does the Ki read?
**A.** Its Ki is 906 nM.

**Q.** How did the Ki turn out when `C[C@@H]1CN(CCC(C)(C(=O)NCc2ccc(C(F)(F)F)nc2)c2ccc(Cl)c(Cl)c2)CCN1S(C)(=O)=O` (stereo partly drawn) [Example 92, 2-(3,4-Dichloro-phenyl)-4-((R)-4-methanesulfonyl-3-methyl-piperazin-1-yl)-2-methyl-N-(6-trifluoromethyl-pyridin-3-ylmethyl)-butyramide] was run?
**A.** The Ki was 582 nM.
